Values belong to the compound of their own block, whether it stands above or below them.
Key:
EGFR (human) [1] = target: EGFR (human) (UniProt P00533); details: a431
EGFR (human) [2] = target: EGFR (human) (UniProt P00533)
PIK3CA = PIK3CA (UniProt P42336); experiment: PIK3CA Inhibition
EGFR (human) [3] = target: EGFR (human) (UniProt P00533); remark: listed apart in the source
EGFR (mouse) [4] = target: EGFR (mouse) (UniProt P00533); details: swiss 3t3 fibroblast
CDK2 [5] = target: CDK2 (UniProt P24941); experiment: Enzyme Assay
CDK2 [6] = target: CDK2 (UniProt P24941); experiment: Enzyme Assay; remark: listed apart in the source
EGFR (human) [7] = target: EGFR (human) (UniProt P00533); remark: listed apart in the source
MAPK14 (human) [8] = target: MAPK14 (human) (UniProt Q16539); experiment: Enzyme Assay
MAPK14 (human), sequence (Q16539 whole entry, looked up): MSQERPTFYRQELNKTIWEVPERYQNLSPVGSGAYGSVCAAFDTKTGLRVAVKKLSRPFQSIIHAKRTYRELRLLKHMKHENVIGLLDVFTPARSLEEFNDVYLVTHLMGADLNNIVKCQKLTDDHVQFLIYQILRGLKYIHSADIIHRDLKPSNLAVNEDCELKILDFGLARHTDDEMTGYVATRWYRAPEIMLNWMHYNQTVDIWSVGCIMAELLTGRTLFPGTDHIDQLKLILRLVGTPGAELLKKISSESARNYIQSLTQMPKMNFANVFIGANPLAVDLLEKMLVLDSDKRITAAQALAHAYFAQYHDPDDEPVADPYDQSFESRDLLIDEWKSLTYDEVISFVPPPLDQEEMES

ROCK2 (human) [9] = target: ROCK2 (human) (UniProt O75116)
ROCK2 (human), sequence (O75116 whole entry, looked up): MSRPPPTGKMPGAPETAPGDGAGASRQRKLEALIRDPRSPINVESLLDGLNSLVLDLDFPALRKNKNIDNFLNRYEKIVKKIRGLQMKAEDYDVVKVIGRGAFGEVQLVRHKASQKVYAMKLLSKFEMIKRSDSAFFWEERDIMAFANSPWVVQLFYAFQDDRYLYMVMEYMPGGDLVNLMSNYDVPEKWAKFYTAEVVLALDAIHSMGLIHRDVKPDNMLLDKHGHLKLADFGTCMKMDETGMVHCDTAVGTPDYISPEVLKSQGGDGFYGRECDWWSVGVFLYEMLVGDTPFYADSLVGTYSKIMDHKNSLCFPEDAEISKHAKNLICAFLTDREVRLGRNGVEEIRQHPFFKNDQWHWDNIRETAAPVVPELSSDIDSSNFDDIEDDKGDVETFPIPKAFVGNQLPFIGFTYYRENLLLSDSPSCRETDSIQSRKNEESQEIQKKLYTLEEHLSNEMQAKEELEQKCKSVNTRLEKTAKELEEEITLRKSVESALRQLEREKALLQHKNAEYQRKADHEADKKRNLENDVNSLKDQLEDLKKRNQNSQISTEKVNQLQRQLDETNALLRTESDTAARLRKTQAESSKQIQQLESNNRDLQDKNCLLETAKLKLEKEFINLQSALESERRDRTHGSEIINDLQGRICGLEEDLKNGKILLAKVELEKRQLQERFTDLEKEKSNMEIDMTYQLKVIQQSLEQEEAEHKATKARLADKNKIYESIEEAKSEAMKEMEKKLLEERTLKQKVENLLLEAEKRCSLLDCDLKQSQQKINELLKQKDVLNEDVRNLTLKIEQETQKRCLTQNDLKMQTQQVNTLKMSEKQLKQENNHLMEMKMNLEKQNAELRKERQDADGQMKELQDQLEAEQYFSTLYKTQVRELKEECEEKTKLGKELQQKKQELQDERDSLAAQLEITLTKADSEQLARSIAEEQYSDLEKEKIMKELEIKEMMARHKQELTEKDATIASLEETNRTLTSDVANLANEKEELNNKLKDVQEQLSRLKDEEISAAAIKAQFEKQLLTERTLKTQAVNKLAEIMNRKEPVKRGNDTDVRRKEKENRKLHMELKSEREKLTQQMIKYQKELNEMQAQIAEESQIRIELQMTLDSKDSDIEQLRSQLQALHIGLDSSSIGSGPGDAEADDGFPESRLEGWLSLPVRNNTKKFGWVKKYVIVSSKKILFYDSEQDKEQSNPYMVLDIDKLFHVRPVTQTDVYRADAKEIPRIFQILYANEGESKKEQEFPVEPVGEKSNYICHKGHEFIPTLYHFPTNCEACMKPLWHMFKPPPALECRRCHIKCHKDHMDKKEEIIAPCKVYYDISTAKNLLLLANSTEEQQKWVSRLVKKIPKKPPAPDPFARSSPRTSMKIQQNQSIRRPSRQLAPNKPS

EGFR (human) [10] = target: EGFR (human) (UniProt P00533); remark: listed apart in the source
EGFR [11] = target: EGFR (UniProt P00533)
EGFR, sequence (P00533 whole entry, looked up): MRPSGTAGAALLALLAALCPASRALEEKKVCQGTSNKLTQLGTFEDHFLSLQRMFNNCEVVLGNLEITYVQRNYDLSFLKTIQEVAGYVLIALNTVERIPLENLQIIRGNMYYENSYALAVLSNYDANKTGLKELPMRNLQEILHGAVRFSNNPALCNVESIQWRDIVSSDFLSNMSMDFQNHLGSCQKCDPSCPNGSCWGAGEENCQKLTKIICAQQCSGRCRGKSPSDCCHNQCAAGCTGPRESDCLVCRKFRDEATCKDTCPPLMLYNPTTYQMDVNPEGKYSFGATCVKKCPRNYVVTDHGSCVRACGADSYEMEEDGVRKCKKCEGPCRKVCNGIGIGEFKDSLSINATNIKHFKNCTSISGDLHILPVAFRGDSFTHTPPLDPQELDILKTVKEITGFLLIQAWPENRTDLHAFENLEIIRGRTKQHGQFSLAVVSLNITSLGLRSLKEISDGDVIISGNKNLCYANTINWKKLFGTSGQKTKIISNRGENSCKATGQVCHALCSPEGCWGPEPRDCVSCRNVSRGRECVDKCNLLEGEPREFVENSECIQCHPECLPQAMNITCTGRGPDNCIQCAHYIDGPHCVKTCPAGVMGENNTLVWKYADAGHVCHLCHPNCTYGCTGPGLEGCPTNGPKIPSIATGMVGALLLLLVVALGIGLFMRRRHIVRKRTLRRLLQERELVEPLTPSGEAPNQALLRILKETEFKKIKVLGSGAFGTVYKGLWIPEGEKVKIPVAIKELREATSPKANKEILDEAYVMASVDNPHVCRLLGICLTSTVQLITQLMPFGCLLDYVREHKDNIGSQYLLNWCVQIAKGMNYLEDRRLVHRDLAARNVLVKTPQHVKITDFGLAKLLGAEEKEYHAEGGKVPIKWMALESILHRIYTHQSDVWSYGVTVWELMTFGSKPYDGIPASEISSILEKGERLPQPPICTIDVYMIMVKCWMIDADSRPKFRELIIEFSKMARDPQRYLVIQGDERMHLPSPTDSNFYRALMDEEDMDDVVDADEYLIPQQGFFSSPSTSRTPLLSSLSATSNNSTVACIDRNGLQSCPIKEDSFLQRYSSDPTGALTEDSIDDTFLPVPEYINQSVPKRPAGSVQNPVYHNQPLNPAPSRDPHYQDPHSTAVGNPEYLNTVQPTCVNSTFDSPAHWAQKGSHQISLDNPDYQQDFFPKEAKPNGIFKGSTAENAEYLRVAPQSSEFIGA

MAPK14 = MAPK14 (UniProt Q16539); experiment: p38 Binding Asssy
MAPK14, sequence (Q16539 whole entry, looked up): as the sequence (Q16539 whole entry, looked up) above

EGFR (human) [12] = target: EGFR (human) (UniProt P00533); details: a431; remark: listed apart in the source
EGFR [13] = target: EGFR (UniProt P00533); remark: listed apart in the source
MAPK14 (human) [14] = target: MAPK14 (human) (UniProt Q16539); experiment: p38 --- IL-1 Inhibition (PBMC cells)
MAPK14 (human) [15] = target: MAPK14 (human) (UniProt Q16539); experiment: p38 --- TNF Inhibition (PBMC cells)
EGFR [16] = target: EGFR (UniProt P00533); remark: listed apart in the source
EGFR [17] = target: EGFR (UniProt P00533); remark: listed apart in the source
EGFR (human) [18] = target: EGFR (human) (UniProt P00533); details: a431; remark: listed apart in the source
EGFR (human) [19] = target: EGFR (human) (UniProt P00533); remark: listed apart in the source
EGFR [20] = target: EGFR (UniProt P00533); remark: listed apart in the source
EGFR (mouse) [21] = target: EGFR (mouse) (UniProt P00533); details: balb/mk cells
EGFR (mouse) [22] = target: EGFR (mouse) (UniProt P00533); details: nih3t3/c7
EGFR [23] = target: EGFR (UniProt P00533); remark: listed apart in the source
EGFR (human) [24] = target: EGFR (human) (UniProt P00533); remark: listed apart in the source
EGFR (human) [25] = target: EGFR (human) (UniProt P00533); details: a431; remark: listed apart in the source
CDK2 (human) [26] = target: CDK2 (human) (UniProt P24941); experiment: Enzyme Assay
CDK2 (human) [27] = target: CDK2 (human) (UniProt P24941); experiment: Enzyme Assay; remark: listed apart in the source
EGFR [28] = target: EGFR (UniProt P00533); remark: listed apart in the source
EGFR (human) [29] = target: EGFR (human) (UniProt P00533); details: A431
PIK3CA (human) = PIK3CA (human) (UniProt P42336); experiment: Inhibition of PIK3CA Kinase Activity in HeLa Cells
ROCK2 (human) [30] = target: ROCK2 (human) (UniProt O75116); experiment: Enzyme Assay
ROCK2 (human) [31] = target: ROCK2 (human) (UniProt O75116); experiment: Enzyme Assay; remark: listed apart in the source

EGFR (human), sequence (P00533 whole entry, looked up): as the sequence (P00533 whole entry, looked up) above

Structure (SMILES): CCCCCCCCCCCCCCCCCCOC[C@H](COP(=O)(O)O[C@H]1[C@H](O)[C@@H](O)CC[C@H]1O)OC
IC50 (PIK3CA): 800 nM

Structure (SMILES): Cc1ccc2[nH]c(SSc3[nH]c4ccc(C)cc4c3CCC(=O)O)c(CCC(=O)O)c2c1
IC50 (EGFR (mouse) [4]): > 50000 nM

Structure (SMILES): COc1ccc2cnc(Nc3ccc(N4CCCCC4)cc3)nc2c1C(C)C
IC50 (CDK2 [5]): 264 nM
IC50 (CDK2 [6]): 4100 nM

Structure (SMILES): Oc1c(-c2ccc(F)cc2)c(-c2ccncc2)nn1-c1ccc(Cl)cc1
activity (EGFR (human) [7]; 1.0 µM): 54%
activity (EGFR (human) [7]; 10.0 µM): 6%
activity (MAPK14 (human) [8]; 1.0 µM): 3%
activity (MAPK14 (human) [8]; 10.0 µM): 0%

Structure (SMILES): O=C(O)C[C@@H](NC(=O)c1ccc2c(c1)OCc1cnccc1-2)c1ccccc1
IC50 (ROCK2 (human) [9]): 516 nM

Structure (SMILES): Cc1cc(N2CCN(CCC#N)CC2)cc2[nH]c(-c3c(NC[C@@H](O)c4ccccc4Cl)cc[nH]c3=O)nc12
IC50 (EGFR (human) [10]): > 10000 nM

Structure (SMILES): C=CC(=O)c1ccc2ccccc2c1
IC50 (EGFR [13]): 12500 nM

Structure (SMILES): Cc1cccc(Sc2ccc3c(-c4c(Cl)cccc4Cl)c(=O)ncn3n2)c1
IC50 (MAPK14 (human) [14]): 210 nM
IC50 (MAPK14 (human) [15]): 280 nM

Structure (SMILES): [N-]=[N+]=Nc1ccc(-c2nc(-c3cccc(I)c3)c(-c3ccncc3)[nH]2)cc1
IC50 (MAPK14): 640 nM

Structure (SMILES): CN1CCN(CCCNc2ncc3cc(-c4c(Cl)cccc4Cl)c(=O)n(C)c3n2)CC1
IC50 (EGFR [16]): 8700 nM

Structure (SMILES): C[C@H](NC(=O)c1ccc(S(=O)(=O)Oc2ccc(/C=C/[N+](=O)[O-])cc2)cc1)C(=O)N[C@@H](C)C(=O)OC(C)(C)C
IC50 (EGFR (human) [18]): 37500 nM

Structure (SMILES): Cc1ccc(Sc2ccc3c(-c4c(Cl)cccc4Cl)c(=O)ncn3n2)cc1
IC50 (MAPK14 (human) [14]): 350 nM
IC50 (MAPK14 (human) [15]): 870 nM

Structure (SMILES): CCn1cnc2c(Nc3cccc(Cl)c3)nc(N[C@H]3CC[C@@H](N)CC3)nc21
IC50 (EGFR [20]): 5300 nM

Structure (SMILES): C[C@H](NC(=O)[C@H](C)NC(=O)c1ccc(S(=O)(=O)Oc2ccc(/C=C/[N+](=O)[O-])cc2)cc1)C(=O)O
IC50 (EGFR (mouse) [21]): > 50000 nM

Structure (SMILES): CO[C@H]1[C@@H](OC)C[C@H](C)[C@@H](OC)C2=CC(=O)C=C(NC(=O)/C(C)=C/C=C/[C@H](OC)[C@H](OC(N)=O)/C(C)=C/[C@@H]1C)C2=O
activity (CDK2 (human) [26]; 1.0 µM): 104%
activity (CDK2 (human) [26]; 10.0 µM): 91%
activity (CDK2 (human) [27]; 1.0 µM): 138%
activity (CDK2 (human) [27]; 10.0 µM): 83%

Structure (SMILES): NCc1ccc(C(=O)Nc2ccncc2F)cc1-c1cccc(C(=O)Nc2ccc(C(=O)O)cc2)c1
IC50 (ROCK2 (human) [30]): 4.1 nM
IC50 (ROCK2 (human) [31]): 1 nM

Continued, values first:

IC50 (EGFR (human) [1]): 8500 nM
IC50 (EGFR (human) [2]): 1130 nM
Structure (SMILES): COCC=CC(=O)Nc1ccc2ncnc(Nc3cccc(Br)c3)c2c1

IC50 (EGFR (human) [3]): 6900 nM
Structure (SMILES): COC(=O)Nc1ccc(Nc2ncnc3cc(OC)c(OC)cc23)cc1

IC50 (EGFR [11]): > 100000 nM
Structure (SMILES): COc1ccc(OC)c(COc2ccc(O)c(C(=O)O)c2)c1

IC50 (MAPK14): 46 nM
Structure (SMILES): [N-]=[N+]=Nc1cccc(-c2ncn(CCCNC(=O)c3ccc(I)cc3)c2-c2ccncc2)c1

Ki (EGFR (human) [12]): 0.025 nM
Structure (SMILES): Oc1ccc2ncnc(Nc3cccc(Br)c3)c2c1

IC50 (EGFR [17]): 1 nM
Structure (SMILES): Cc1cccc(Nc2cc(Nc3cccc(N(C)C)c3OCCO)ncn2)c1

IC50 (EGFR (human) [19]): < 100 nM
Structure (SMILES): C=CC(=O)Nc1ccc(-n2nc(-c3ccc(Cl)c(Cl)c3)c3c(N)ncnc32)cc1

IC50 (EGFR [11]): > 100000 nM
Structure (SMILES): COC(=O)c1cc(OCc2cc(OC)ccc2OC)ccc1O

IC50 (EGFR (human) [1]): 1890 nM
IC50 (EGFR (human) [2]): 74 nM
Structure (SMILES): O=C(C=CCN1CCOCC1)Nc1ccc2ncnc(Nc3cccc(Br)c3)c2c1

IC50 (EGFR (mouse) [22]): > 100000 nM
Structure (SMILES): Cc1cnc2cc3nc(-c4ccccc4)[nH]c3c(C)c2n1

IC50 (EGFR [23]): 810 nM
Structure (SMILES): C=CC(=O)Nc1cc2c(Nc3cccc(Br)c3)c(C#N)cnc2cc1OC

IC50 (EGFR (human) [24]): 6 nM
Structure (SMILES): Nc1nc(Nc2cccc(Cl)c2)c2c(n1)[nH]c1ccccc12

IC50 (EGFR (human) [25]): 100 nM
Structure (SMILES): N#Cc1cnc2ccc(NC(=O)C#CCN3CCSCC3)cc2c1Nc1cccc(Br)c1

IC50 (EGFR [28]): 10 nM
Structure (SMILES): COc1cc2ncnc(Nc3ccc(F)c(Cl)c3)c2cc1OCCN1CCOCC1

IC50 (EGFR (human) [29]): 14100 nM
EC50 (PIK3CA (human)): 12200 nM
Structure (SMILES): Cc1ccc(Sc2cccc3[nH]c4nc(N)nc(N)c4c23)cc1

IC50 (EGFR [13]): 3130 nM
Structure (SMILES): CC(C)N(CCC(=O)c1ccc2ccccc2c1)Cc1ccccc1

— the Kinase Knowledgebase extract (Sharma et al. 2016)
